Results as given in patent US20060089410A1, “Combination of chemotherapeutic drugs for increasing antitumor activity” (Titan Pharmaceuticals, Inc., priority 2002, published 2006).

What was measured:
[1] = test system: c-Myc oncogene; experiment: c-Myc oncogene expression by RT-PCR, Calu-6 cells; type: cell-based; conditions: for c-Myc oncogene expression: 96 hour exposure, n = 2
Method: (§1) T24 Bladder transitional carcinoma cells, Calu-6 anaplastic lung carcinoma cells, and SK-MES-1 squamous lung cell carcinoma cell cultures were purchased from the American Type Culture Collection (Manassas, Va.). All cell lines were cultured in RPMI-1640 with 10% fetal calf serum. For culture in microtiter dishes, cells were plated at a density of 10^4 cells/well and incubated at 37° C., 5% CO2 overnight.
(§2) After overnight incubation, drugs were added to wells in quadruplicate and incubated for 6 to 96 hours in the presence or absence of the oxyalkylene containing compound. […] the media was removed, fresh media were added with cytotoxic drug, and the cultures were incubated for another 6 hours.
(§3) Tumor cell culture mRNA was isolated by standard methods, and RT-PCR was conducted to determine levels of c-Myc oncogene expression. The c-Myc primer pair used for RT-PCR cycling was:
(§4) The c-Myc primer pair was cycled by the following program: 95° C. for 3 min., then 30 cycles of (95° C. for 1 min., then 55° C. for 1 min., then 72° C. for 1 min.) followed by holding temperature at 72° C. for 7 min. before ramping temperature to 4° C. Samples were analyzed quantitatively by 1% agarose gel electrophoresis and gel densitometry.

[2] = test system: c-Myc oncogene; experiment: c-Myc oncogene expression by RT-PCR, T24 cells; type: cell-based, human; conditions: for c-Myc oncogene expression: 96 hour exposure
Method: as §1, §2, §3, §4

[3] = test system: T24 Bladder transitional carcinoma cells; experiment: Crystal violet microtiter assay, Pivanex then cytotoxic drug, T24; type: cell-based, human
Method: as §1, §2
(§5) The wells were then washed and medium without drug was added to each well. Microtiter plates were subsequently incubated for an additional 3 days before cell density was determined by a Crystal Violet Assay. Some cultures were alternatively fixed in methanol and stained with hematoxylin and eosin (H&E) stain for 5 minutes prior to microphotography.
(§6) PIVANEX (pivaloyloxymethyl butyrate) was obtained from Titan Pharmaceuticals Inc. (South San Francisco, Calif.) and was admixed with 0.05% Intralipid™ (Fresenius Kabi, Clayton, N.C.) prior to addition to culture media. The cytotoxic drugs gemcitabine (Gemzar; Eli Lilly and Co., Indianapolis, Ind.), cisplatin (Platinol, Bristol-Myers Squibb Co., Princeton, N.J.), paclitaxel (Taxol; Bristol-Myers Squibb Co., Princeton, N.J.), and docetaxel (Taxotere, Aventis Pharmaceuticals Products, Inc., Bridgewater, N.J.) were studied with PIVANEX.
(§7) Cells in microtiter wells were rinsed with PBS and fixed in two volumes of 100% cold methanol for 5 minutes. One volume of 0.5% crystal violet in 20% methanol was added and the attached cells stained for 10 minutes. The cells were then washed and crystal violet was eluted with 0.1 N sodium citrate buffer and read on an ELISA plate reader at 490 nm.

[4] = test system: Calu-6 anaplastic lung carcinoma cells; experiment: Crystal violet microtiter assay, Pivanex then cytotoxic drug, Calu-6; type: cell-based
Method: as §1, §2, §5, §6, §7

[5] = test system: H23 (NCI-H23) NSCLC cell line; experiment: MTS growth inhibition assay, sequencing of Pivanex and docetaxel, H23; type: cell-based, human; conditions: after 24 hour exposure
Method: Human Non-Small Cell Lung Carcinoma Cell Lines, H522 and NCI-H23, were evaluated for growth inhibitory activity of Pivanex, alone and in combination with the standard chemotherapeutic agent, docetaxel. Cells were treated for three days with Pivanex followed by 24 hours of exposure to docetaxel or the cells were treated for 24 hours with docetaxel followed by three days of exposure to Pivanex. The cell growth inhibition was judged at the end of the 4-day experiments by a standard staining technique using MTS tetrazolium vital stain. […]
Exponentially growing cells were harvested with trypsin (0.05%)/EDTA (0.02%) and re-suspended in fresh medium containing 10% FBS. […] Absorbance was documented on a Dynex HD microplate reader at a wavelength of 490 nm. IC50 values were determined by using the Prism® GraphPad software from 3 different tests, each of which involved 4 replicates for each dose determination. The data are presented as percent growth inhibition, where 0% represents the mean value in wells to which only vehicle (0.1% DMSO) was added and was calculated as follows: % Growth Inhibition=(1−(ODtest/ODvehicle))×100 where ODtest is the optical density of the tested sample, OD vehicle is the optical density of the vehicle in which each respected drug is dissolved.

[6] = test system: tumor cells; experiment: Growth inhibitory and cytotoxic effects on tumor cells in tissue culture; type: cell-based; conditions: tumor cell line dependent
Text: Testing of a pivaloyloxymethyl butyrate dose and schedule interactions with chemotherapy in tissue culture was undertaken to facilitate clinical planning.
The observed morphologic changes consistent with a more differentiated phenotype prompted investigation of oncogene expression following exposure to pivaloyloxymethyl butyrate.

[7] = test system: T24 bladder cancer cells; experiment: Pretreatment followed by various chemotherapeutic agents, T24; type: cell-based, human
Method: (§8) Human T24 bladder and A549 lung cancer cells were exposed to increasing concentrations of pivaloyloxymethyl butyrate for 6 or 72 hours followed by exposure to various chemotherapeutic agents. […] At higher dosages the increase in cytotoxicity following the sequential regimen would show after a shorter induction period with pivaloyloxymethyl butyrate as discussed above.

[8] = test system: A549 lung cancer cells; experiment: Pretreatment followed by various chemotherapeutic agents, A549; type: cell-based, human
Method: as §8

[9] = Pivanex 50 μM, gemcitabine 0 nM
[10] = Pivanex 100 μM, gemcitabine 0 nM

## CCCC(=O)OCOC(=O)C(C)(C)C [Pivanex, pivaloyloxymethyl butyrate]
[1]; Calu-6, 96 hours in culture
  concentrations (as low as) that decreased the expression of c-Myc oncogene: 10 to 50 µM
[1]; Pivanex 10 μM
  c-Myc oncogene expression: 893 PCR units
[1]; Pivanex 25 μM
  c-Myc oncogene expression: 743 PCR units
[1]; Pivanex 50 μM
  c-Myc oncogene expression: 711 PCR units
[1]; Pivanex 100 μM
  c-Myc oncogene expression: 647 PCR units
[1]; Pivanex 200 μM
  c-Myc oncogene expression: 460 PCR units
[2]; Pivanex 10 μM
  c-Myc oncogene expression: 760 PCR units
[2]; Pivanex 25 μM
  c-Myc oncogene expression: 972 PCR units
[2]; Pivanex 50 μM
  c-Myc oncogene expression: 966 PCR units
[2]; Pivanex 100 μM
  c-Myc oncogene expression: 640 PCR units
[2]; Pivanex 200 μM
  c-Myc oncogene expression: 560 PCR units
[2]; T-24, 96 hours in culture
  concentrations (as low as) that decreased the expression of c-Myc oncogene: 10 to 50 µM
[3]; Pivanex 10 μM, cisplatin 0 μM
  T24 cancer cell viability (A^490 Absorbance): 0.48
[3]; Pivanex 25 μM, gemcitabine 0 nM
  T24 cancer cell viability (A^490 Absorbance): 0.479
[3]; Pivanex 50 μM, cisplatin 0 μM
  T24 cancer cell viability (A^490 Absorbance): 0.422
[3]; [9]
  T24 cancer cell viability (A^490 Absorbance): 0.455
[3]; [10]
  T24 cancer cell viability (A^490 Absorbance): 0.414
[3]; Pivanex 200 μM, gemcitabine 0 nM
  T24 cancer cell viability (A^490 Absorbance): 0.41
[4]; Pivanex 10 μM, cisplatin 0 μM
  Calu-6 cancer cell viability (A^490 Absorbance): 0.617
[4]; Pivanex 10 μM, docetaxel 0 nM
  Calu-6 cancer cell viability (A^490 Absorbance): 0.732
[4]; Pivanex 10 μM, gemcitabine 0 nM
  Calu-6 cancer cell viability (A^490 Absorbance): 0.617
[4]; Pivanex 50 μM, cisplatin 0 μM
  Calu-6 cancer cell viability (A^490 Absorbance): 0.577
[4]; Pivanex 50 μM, docetaxel 0 nM
  Calu-6 cancer cell viability (A^490 Absorbance): 0.553
[4]; [9]
  Calu-6 cancer cell viability (A^490 Absorbance): 0.577
[4]; Pivanex 100 μM, cisplatin 0 μM
  Calu-6 cancer cell viability (A^490 Absorbance): 0.284
[4]; [10]
  Calu-6 cancer cell viability (A^490 Absorbance): 0.284
[5]
  cell growth with agent alone: steep increase in H23 cell growth
[6]; 6-hour exposure
  concentrations at which cytotoxicity was observed: greater than 125 μM
[6]; 72 hours of treatment
  concentrations at which cytotoxicity was observed: greater than 25 μM
[7]; T24, 6-hour pretreatment, lower doses
  enhancement of cytotoxicity of chemotherapeutic agents: did not enhance cytotoxicity
[7]; T24, 72-hour pretreatment
  enhancement of cytotoxicity of chemotherapeutic agents: did enhance drug-induced cytotoxicity
[8]; A549, 6-hour pretreatment, lower doses
  enhancement of cytotoxicity of chemotherapeutic agents: did not enhance cytotoxicity
[8]; A549, 72-hour pretreatment
  enhancement of cytotoxicity of chemotherapeutic agents: did enhance drug-induced cytotoxicity
